ChEMBL document CHEMBL3853324, “Optimizing Protonation States for Selective Double-Strand DNA Photocleavage in Hypoxic Tumors: pH-Gated Transitions of Lysine Dipeptides” (J Med Chem, 2016)
The source made the active and inactive calls. The rule behind the calls is not given here.

Assays:
[1] = Displacement of ethidium bromide from DNA (unknown origin) assessed as Stem-Volmer quenching constant at pH 6 by UV-spectroscopic analysis; design: unit not given here
[2] = tested on: Escherichia coli; assay: Induction of Escherichia coli supercoiled pBR322 plasmid DNA photocleavage at 15 uM and pH 6 to 8 measured after 1 hr of UV-irradiation by densitometric analysis
[3] = Displacement of ethidium bromide from DNA (unknown origin) assessed as Stem-Volmer quenching constant at pH 8 by UV-spectroscopic analysis; design: unit not given here
[4] = tested on: Escherichia coli; assay: Induction of Escherichia coli supercoiled pBR322 plasmid DNA photocleavage at 15 uM and pH 6 in presence of DMSO by densitometric analysis
[5] = Dissociation constant, pKa of the compound in D2O for second ionization at 1 mM by H1-NMR analysis; format: physicochemical
[6] = species: Bos taurus; assay: Binding affinity to calf thymus DNA assessed as binding constant at 15 uM and pH 6 by UV-spectroscopic analysis
[7] = Dissociation constant, pKa of the compound for first ionization at 10 uM by fluorescence analysis; format: physicochemical
[8] = species: Bos taurus; assay: Binding affinity to calf thymus DNA assessed as binding constant at 15 uM and pH 8 by UV-spectroscopic analysis
[9] = Displacement of ethidium bromide from DNA (unknown origin) assessed as Stem-Volmer quenching constant at pH 7 by UV-spectroscopic analysis; design: unit not given here
[10] = Dissociation constant, pKa of the compound in D2O for first ionization at 1 mM by H1-NMR analysis; format: physicochemical
[11] = species: Bos taurus; assay: Ratio of binding affinity to calf thymus DNA at pH 8 to binding affinity to calf thymus DNA at pH 6
[12] = species: Bos taurus; assay: Binding affinity to calf thymus DNA assessed as binding constant at 15 uM and pH 7 by UV-spectroscopic analysis
[13] = tested on: Escherichia coli; assay: Induction of Escherichia coli supercoiled pBR322 plasmid DNA photocleavage at 15 uM and pH 6 in presence of NaN3 by densitometric analysis
[14] = tested on: Escherichia coli; assay: Induction of Escherichia coli supercoiled pBR322 plasmid DNA photocleavage at 15 uM and pH 6 in presence of glycerol by densitometric analysis
[15] = tested on: Escherichia coli; assay: Induction of Escherichia coli supercoiled pBR322 plasmid DNA photocleavage assessed as double stranded break formation per molecule at pH 6 at 15 uM measured after 4 mins of UV-irradiation by densitometric analysis
[16] = tested on: Escherichia coli; assay: Induction of Escherichia coli supercoiled pBR322 plasmid DNA photocleavage assessed as single stranded break formation per molecule at pH 6 at 15 uM measured after 8 mins of UV-irradiation by densitometric analysis
[17] = tested on: Escherichia coli; assay: Induction of Escherichia coli supercoiled pBR322 plasmid DNA photocleavage assessed as ratio of single stranded break to double stranded break formation per molecule at pH 6 at 15 uM measured after 8 mins of UV-irradiation by densitometric analysis
[18] = tested on: A-375; assay: Induction of DNA damage in human A375 cells assessed as abasic site formation at 3 uM preincubated for 1 hr followed by UV-irradiation for 2 hrs relative to control; format: functional
[19] = tested on: Escherichia coli; assay: Induction of Escherichia coli supercoiled pBR322 plasmid DNA photocleavage assessed as ratio of single stranded break to double stranded break formation per molecule at pH 6 at 15 uM measured after 6 mins of UV-irradiation by densitometric analysis
[20] = tested on: Escherichia coli; assay: Induction of Escherichia coli supercoiled pBR322 plasmid DNA photocleavage assessed as double stranded break formation per molecule at pH 6 at 15 uM measured after 8 mins of UV-irradiation by densitometric analysis
[21] = tested on: Escherichia coli; assay: Induction of Escherichia coli supercoiled pBR322 plasmid DNA photocleavage assessed as double stranded break formation per molecule at pH 6 at 15 uM measured after 6 mins of UV-irradiation by densitometric analysis
[22] = tested on: Escherichia coli; assay: Induction of Escherichia coli supercoiled pBR322 plasmid DNA photocleavage assessed as single stranded break formation per molecule at pH 6 at 15 uM measured after 6 mins of UV-irradiation by densitometric analysis
[23] = tested on: A-375; assay: Induction of DNA damage in human A375 cells assessed as abasic site formation at 3 uM preincubated for 1 hr followed by UV-irradiation for 2 hrs; format: functional
[24] = tested on: Escherichia coli; assay: Induction of Escherichia coli supercoiled pBR322 plasmid DNA photocleavage assessed as single stranded break formation per molecule at pH 6 at 15 uM measured after 4 mins of UV-irradiation by densitometric analysis
[25] = Dissociation constant, pKa of the compound for second ionization at 10 uM by fluorescence analysis; format: physicochemical
[26] = tested on: Escherichia coli; assay: Induction of Escherichia coli supercoiled pBR322 plasmid DNA photocleavage assessed as ratio of single stranded break to double stranded break formation per molecule at pH 6 at 15 uM measured after 4 mins of UV-irradiation by densitometric analysis

SMILES | KSV [1] | Activity [2] | KSV [3] | Activity [4] | pKa at 1000 µM [5] | Kb [6] | pKa at 10 µM [7] | Kb [8] | KSV [9] | pKa at 1000 µM [10] | Ratio [11] | Kb [12] | Activity [15] | Activity [16] | Ratio [17] | Ratio [19] | Activity [20] | Activity [21] | Activity [22] | Activity [24] | also measured
N[C@@H](Cc1ccccc1)C(=O)NCCC[C@H](N)C(=O)Nc1ccc(C#Cc2c(F)c(F)nc(F)c2F)cc1 | 27.8 | Active | 6.3 | Active | 7.2 | 10700 | 7.1 | 32100 | 23.6 | 7.2 | 3 | 12700 | – | – | – | – | – | – | – | – | –
NCC(=O)NCCC[C@H](N)C(=O)Nc1ccc(C#Cc2c(F)c(F)nc(F)c2F)cc1 | 7 | – | 1.5 | Active | 7.7 | 2830 | 7 | 15000 | 4.4 | 7.2 | > 4 | 10500 | – | – | – | – | – | – | – | – | Activity [13]: Active; Activity [14]: Active
N[C@@H](Cc1ccccc1)C(=O)NCCCC[C@H](N)C(=O)Nc1ccc(C#Cc2c(F)c(F)nc(F)c2F)cc1 | 27.8 | – | 6.7 | – | 6.7 | 11700 | 7.3 | 66700 | 9.2 | 6.6 | 5.7 | 13100 | 0 | 1.7 | 8 | 8.04 | 0.21 | 0.13 | 1 | 0.7 | fold change (FC) [18]: 2; Activity [23]: 17
C[C@H](N)C(=O)NC[C@H](N)C(=O)Nc1ccc(C#Cc2c(F)c(F)nc(F)c2F)cc1 | 9 | Active | 3.1 | – | – | 5850 | 5.5 | 20500 | 4.9 | – | 3.5 | 15000 | – | – | – | – | – | – | – | – | pKa at 10 µM [25]: 8.1
C[C@H](N)C(=O)NCCCC[C@H](N)C(=O)Nc1ccc(C#Cc2c(F)c(F)nc(F)c2F)cc1 | 6.8 | – | 3.4 | – | 7.4 | 2890 | 7.3 | 30300 | 5.7 | 7.3 | 10.5 | 8890 | 0.07 | 1.9 | 6.6 | 9.1 | 0.29 | 0.19 | 1.7 | 0.6 | Ratio [26]: 9.4
N[C@@H](Cc1ccccc1)C(=O)NC[C@H](N)C(=O)Nc1ccc(C#Cc2c(F)c(F)nc(F)c2F)cc1 | 9.4 | – | 2.6 | – | – | 22300 | 6.3 | 23300 | 5.9 | – | 1.1 | 14600 | – | – | – | – | – | – | – | – | pKa at 10 µM [25]: 7.8
C[C@H](N)C(=O)NCCC[C@H](N)C(=O)Nc1ccc(C#Cc2c(F)c(F)nc(F)c2F)cc1 | 11.1 | Active | 5.2 | – | 7.8 | 4440 | 6.6 | 20200 | 7.8 | 7 | 4.6 | 6750 | – | – | – | – | – | – | – | – | –
N[C@@H](Cc1c[nH]c2ccccc12)C(=O)NCCCC[C@H](N)C(=O)Nc1ccc(C#Cc2c(F)c(F)nc(F)c2F)cc1 | 26 | – | 5.7 | Active | – | 10400 | 7.3 | 18000 | 9.2 | – | 1.7 | 16800 | 0 | 0.9 | 4.3 | 5.3 | 0.2 | 0.15 | 0.8 | 0.7 | Activity [13]: Active; Activity [14]: Active
